Reference: PubChem BioAssay AID624167 (Sanford-Burnham Center for Chemical Genomics, 2012)
The source made the active and inactive calls.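 Rule for the calls: active = mean IC50 for reducing PEG3 promoter reporter signal at or below a set limit, with IC50 above the limit in both counter screens; inactive = the rest, including counter screen hits.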

Experiments:
GAPDH = assay: inhibition of PEG-3 promoter-driven reporter – cell-based, HeLa, luciferase, CREF/GAPDH counter-screen panel, dose response (AID 624167); conditions: CREF/GAPDH counter-screens
PEG-3 [1] = molecular target: PEG-3 (UniProt Q6IN02); assay: as above; conditions: HeLa PEG-Prom luciferase reporter, overnight, CREF/GAPDH counter-screens, mean of runs
[2] = as above; conditions: CREF/GAPDH counter-screens; GAPDH; mean of runs
PEG-3 [3] = assay: as above; conditions: HeLa PEG-Prom luciferase reporter, overnight, CREF/GAPDH counter-screens
Rat fibroblasts (CREF) = assay: as above; conditions: CREF/GAPDH counter-screens
[4] = run 1, dose range 1, individual replicate IC50 per panel
[5] = run 2, dose range 1, individual replicate IC50 per panel

Sequence of PEG-3 (UniProt Q6IN02) (Q6IN02 whole entry, looked up): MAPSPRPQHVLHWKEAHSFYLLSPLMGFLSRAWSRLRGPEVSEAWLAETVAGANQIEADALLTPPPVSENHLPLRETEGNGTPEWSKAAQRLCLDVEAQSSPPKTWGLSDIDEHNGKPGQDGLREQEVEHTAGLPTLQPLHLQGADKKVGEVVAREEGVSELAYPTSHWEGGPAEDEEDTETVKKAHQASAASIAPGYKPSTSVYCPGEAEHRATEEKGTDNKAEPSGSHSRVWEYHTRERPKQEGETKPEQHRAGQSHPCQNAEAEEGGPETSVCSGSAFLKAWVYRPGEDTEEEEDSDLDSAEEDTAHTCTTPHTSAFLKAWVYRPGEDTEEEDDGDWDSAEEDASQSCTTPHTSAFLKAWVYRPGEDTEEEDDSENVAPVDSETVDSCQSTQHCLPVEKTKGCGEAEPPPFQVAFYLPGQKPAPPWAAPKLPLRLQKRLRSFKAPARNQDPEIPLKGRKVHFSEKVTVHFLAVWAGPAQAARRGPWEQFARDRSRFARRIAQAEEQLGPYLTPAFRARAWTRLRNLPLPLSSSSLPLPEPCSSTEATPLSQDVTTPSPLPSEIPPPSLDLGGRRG

IC50 (PEG-3 [1]) [µM] | IC50 [2] | SMILES | IC50 (GAPDH; [4]) [µM] | IC50 (GAPDH; [5]) [µM] | IC50 (PEG-3 [3]; [4]) [µM] | IC50 (PEG-3 [3]; [5]) [µM] | IC50 (Rat fibroblasts (CREF); mean of runs) | IC50 (Rat fibroblasts (CREF); [4]) [µM] | IC50 (Rat fibroblasts (CREF); [5]) [µM]
0.673 | 5.17 µM | O=[N+]([O-])c1nn(-c2ccc3c(c2)OCCO3)n(O)c1=Nc1ccc(Cl)cc1 | 2.94 | 7.41 | 1.07 | 0.271 | > 100 µM (inactive) | > 100 | > 100
3.26 | > 100 µM (inactive) | C/C(=N\NC(=O)c1cc(C2CC2)nc2ccccc12)c1ccc(O)cc1O | > 100 | > 100 | 3.07 | 3.45 | 60.7 µM (inactive) | 21.5 | > 100
1.75 | inactive | CC(=O)NC(c1ccc(Cl)cc1)c1ccc2cccnc2c1O (stereo not given) | 58.8 | 56 | 1.47 | 2.04 | > 100 µM (inactive) | > 100 | > 100
10.5 | inactive | O=C(Nc1ccc(Cc2ccncc2)cc1)c1ccc([N+](=O)[O-])o1 | 56.6 | 63.3 | 13.2 | 7.69 | 14.2 µM | 14 | 14.3
0.754 | > 100 µM (inactive) | COc1cccc(/C=N/NC(=O)c2c(C)nc3ccc(Cl)cn23)c1O | > 100 | > 100 | 0.994 | 0.513 | 69.6 µM (inactive) | > 100 | 39.3
8.04 | 18.6 µM | Cc1ccc(C(C[N+](=O)[O-])Sc2ccc(N)cc2)cc1 (stereo not given) | 21.1 | 16.1 | 9.59 | 6.49 | 62.8 µM (inactive) | 25.6 | > 100
1.49 | 20.9 µM | Cc1cc(C)c2sc(NNC(=O)c3ccc(S(=O)(=O)N4CCc5ccccc5C4)cc3)nc2c1 | 10.4 | 31.5 | 0.939 | 2.04 | > 100 µM (inactive) | > 100 | > 100
1.6 | 5.35 µM | Cc1ccsc1/C=N/Nc1cccc(C(=O)O)c1 | 3.26 | 7.43 | 1.27 | 1.92 | > 100 µM (inactive) | > 100 | > 100
1.9 | 12.8 µM | Cc1ccc(/C=C2\SC(=S)N(CCCC(=O)Nc3ccccn3)C2=O)cc1 | 17.7 | 7.78 | 1.33 | 2.48 | > 100 µM (inactive) | > 100 | > 100

Continued, compound first:

SMILES | IC50 (PEG-3 [1]) [µM] | IC50 [2] | IC50 (GAPDH; [4]) [µM] | IC50 (GAPDH; [5]) [µM] | IC50 (PEG-3 [3]; [4]) [µM] | IC50 (PEG-3 [3]; [5]) [µM] | IC50 (Rat fibroblasts (CREF); mean of runs) | IC50 (Rat fibroblasts (CREF); [4]) [µM] | IC50 (Rat fibroblasts (CREF); [5]) [µM]
CCOc1cccc(/C=N/NC(=S)Nc2cc(S(=O)(=O)N3CCOCC3)ccc2N2CCOCC2)c1O | 17.3 | > 100 µM (inactive) | > 100 | > 100 | 9.08 | 25.5 | 72.8 µM (inactive) | > 100 | 72.8
CC1=CC2C(C(O)CC3(C)C2CC(C)C32OCOC23COCO3)C2(C)C/C(=C\O)C(=O)C=C12 (stereo not given) | 6.07 | 9.16 µM | 7.69 | 10.6 | 7.13 | 5.01 | 8.5 µM | 7.69 | 9.3
Cc1cc(C)c(C)c(S(=O)(=O)N2CCN(C(=O)c3cc(=O)[nH]c4ccccc34)CC2)c1C | 9.32 | inactive | 24.9 | 36.8 | 13.6 | 5.06 | 55.2 µM (inactive) | > 100 | 10.3
COC(COC(N)=O)C1=C(N2CC2)C(=O)C(C)=C(N2CC2)C1=O (stereo not given) | 0.938 | 15 µM | 10.2 | 19.8 | 1.29 | 0.583 | 4.51 µM | 8.05 | 0.958
Oc1[nH]c2ccc(Br)cc2c1N=NC(=S)N1CCOCC1 | 1.07 | 13.8 µM | 18.8 | 8.78 | 1.25 | 0.885 | 50.3 µM (inactive) | > 100 | 0.611
CCc1ccc(/C=C2\SC(=S)N(CCCC(=O)Nc3cc(C)on3)C2=O)cc1 | 3.46 | 9.14 µM | 7.4 | 10.9 | 3.86 | 3.05 | > 100 µM (inactive) | > 100 | > 100
